Experimental findings from the OPERA property sets (Mansouri et al. 2018) are described below.

Conditions in the first series: not given
`Cc1ccc(-c2ccccc2)cc1C` displayed a boiling point of 282 °C and a melting point of 29.5 °C. For `CC(C)CCN`, the boiling point was determined as 96 °C.

For `NC(=O)c1ccccc1O`, the melting point came to 142 °C. Still for that read-out and setting: the value for `COC(=O)c1cccc([N+](=O)[O-])c1` was 78 °C; that for `CC1=CCC2C(C)(C)CCC[C@]2(C)[C@@]12CC[C@](C)(CC(=O)O)O2` (stereo partly specified) was 100 °C. Consider `CCC(C)(C#N)/N=N/C(C)(C#N)CC` (stereo unspecified), for which the melting point was found to be 50 °C. On the same count and under the same terms, the value for `O=C(O)CCC(=O)Nc1ccccc1` was 148 °C. Consider `C=C(C)CCCC`, for which the boiling point came to 92 °C, the log10 vapour pressure (mmHg) is 1.78 and the melting point is -103 °C. `Fc1c(F)c(F)c2c(F)c(F)c(F)c(F)c2c1F`: the boiling point was determined as 209 °C and the melting point was 87.5 °C. In the case of `CC1(C)NC(=O)NC1=O`, the melting point is 178 °C. Take `COc1cccc(Nc2ccccc2)c1`: the melting point amounted to 73 °C. The same measure, in the same setting: the value for `COc1cc([C@@H]2c3cc4c(cc3C(O[C@@H]3O[C@@H]5COC(c6cccs6)O[C@H]5[C@H](O)[C@H]3O)C3COC(=O)[C@@H]32)OCO4)cc(OC)c1O` (stereo partly specified) was 244 °C; that for `CC(C)(C)C(=O)C1C(=O)c2ccccc2C1=O` was 109 °C; that for `NC(=O)OCC(COC(N)=O)c1ccccc1` was 152 °C.

Consider `Cc1cccc(F)c1`, for which the boiling point came out at 115 °C, the log10 vapour pressure (mmHg) was found to be 1.34 and the melting point was -87 °C. `CC(=O)OCC1=C(C(=O)O)N2C(=O)[C@@H](NC(=O)Cc3cccs3)[C@H]2SC1` had a melting point of 160 °C. Same read-out and setting: the value for `CCCCCCCCCCCCCCCCCCOO` was 49.5 °C.

For the molecule `CNC(=O)Oc1cc(C)c(C)c(C)c1`, the log10 Koc (L/kg) is 2.6, the log10 vapour pressure (mmHg) was -4.29 and the melting point was found to be 109 °C. Consider `CCCCCCCCCCCC(C)=O`, for which the boiling point turned out to be 263 °C, the log10 vapour pressure (mmHg) was -1.98 and the melting point turned out to be 30.5 °C. As to `NC1=NCC(c2ccccc2)O1` (stereo unspecified), the melting point was determined as 136 °C. For the molecule `O=S(=O)(Cl)Cc1ccccc1`, the ready biodegradability entry is “readily biodegradable”. With `COOC`, the boiling point came out at 14 °C. `Cc1ccc(P(c2ccc(C)cc2)c2ccc(C)cc2)cc1` gave a melting point of 149 °C. In turn, `CC(F)(F)CC(F)(F)F` showed a boiling point of 40 °C.

`Cc1cc(Cl)ccc1Cl` showed a boiling point of 200 °C and a melting point of 5 °C. Regarding `C1=CC2C3C=CC(C3)C2C1` (stereo unspecified), the boiling point turned out to be 170 °C, the log10 vapour pressure (mmHg) turned out to be 0.361, the melting point worked out at 15.5 °C and the ready biodegradability entry is “not readily biodegradable”. As for `C1=Cc2cc3ccc(cc4nc(cc5ccc(cc1n2)[nH]5)C=C4)[nH]3`, the melting point turned out to be 360 °C. Same read-out and setting: the value for `COc1ccc(CO)cc1O` was 136 °C. Molecule `CNc1ccc(N)c2c1C(=O)c1ccccc1C2=O` returned a melting point of 193 °C.

Consider `CCCCCCCCCCCCCCCC(N)=O`, for which the melting point amounted to 107 °C and the ready biodegradability result is “not readily biodegradable”. The molecule `C=C(C)CCC` came in with a boiling point of 62.1 °C and a log10 vapour pressure (mmHg) of 2.29.

For `C=Cc1ccc(F)cc1`, the melting point is -34.5 °C. With `COC(=O)COc1ccc(Cl)cc1Cl`, the log10 vapour pressure (mmHg) is -2.64 and the melting point was 119 °C. Take `CCCCOC(=O)c1ccccc1`: the boiling point came to 250 °C, the log10 Koc (L/kg) was found to be 2.1, the log10 vapour pressure (mmHg) is -2 and the melting point is -22.4 °C. Turning to `CC(=O)N(c1onc(C)c1C)S(=O)(=O)c1ccc(N)cc1`, the melting point amounted to 194 °C. On to `CCCCCCCCCCCCCCCCS`, for which the boiling point stood at 334 °C, the log10 vapour pressure (mmHg) was -4.99 and the melting point stood at 19 °C. As for `Cc1ccc(C)cc1`, the boiling point was found to be 138 °C, the log10 Henry constant (atm·m³/mol) is -2.16, the log10 Koa was determined as 3.79 and the log10 Koc (L/kg) was 2.41. The log10 biodegradation half-life (days) was 0.954, the log10 vapour pressure (mmHg) came to 0.947, the melting point was found to be 13.2 °C and the ready biodegradability entry was “readily biodegradable”. For the molecule `CCCCCCCC=CC=O`, the boiling point stood at 230 °C. As for `CCC(=O)CC(=O)CC`, the ready biodegradability entry was “readily biodegradable”. In the case of `CC(C)=CCO`, the boiling point is 140 °C.

The same series, now with this note: fish.
For `C1=CC2C3C=CC(C3)C2C1` (stereo unspecified), the log10 BCF was found to be 2.34. Same read-out and setting: the value for `Cc1ccc(C)cc1` was 1.17.

For orientation: boiling point means the temperature of boiling at a given pressure. Broadly, the melting point is the temperature of the solid-liquid transition.
